This note sets out measurements from US20120225062A1 (priority 2011, published 2012).

Test [1] deals with Pim 2 (Homo sapiens, UniProt Q9P1W9). In words: Pim 2 AlphaScreen assay (high ATP).
The target in test [2] is Pim 1 (Homo sapiens, UniProt P11309). In words: Pim 1 AlphaScreen assay (high ATP).
Test [3] deals with Pim 3 (Homo sapiens, UniProt Q86V86). The test can be described thus: Pim 3 AlphaScreen assay (high ATP).
The subject of test [4] is KMS11 (human myeloma cell line). The test can be described thus: Cell Proliferation Assay (CellTiter-Glo, 3 days). Type of test: cell-based. As to conditions: KMS-11, 72 h, KMS11-luc cells. A digest of the protocol: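 EC50 from CellTiter-Glo luminescence after 3-day, 37° C compound treatment of KMS11 cells seeded at 2000 per well in IMDM plus 10% FBS.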

Pim 2, sequence (Q9P1W9 whole entry): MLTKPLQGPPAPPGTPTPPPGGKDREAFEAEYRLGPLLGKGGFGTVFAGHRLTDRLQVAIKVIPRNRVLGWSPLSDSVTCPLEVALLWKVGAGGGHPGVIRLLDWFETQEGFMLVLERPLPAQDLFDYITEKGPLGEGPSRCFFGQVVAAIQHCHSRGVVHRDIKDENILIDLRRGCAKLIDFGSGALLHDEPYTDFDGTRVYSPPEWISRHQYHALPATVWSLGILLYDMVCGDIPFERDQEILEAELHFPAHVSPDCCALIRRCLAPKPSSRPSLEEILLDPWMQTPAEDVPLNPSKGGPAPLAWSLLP
Pim 1, sequence (P11309 whole entry): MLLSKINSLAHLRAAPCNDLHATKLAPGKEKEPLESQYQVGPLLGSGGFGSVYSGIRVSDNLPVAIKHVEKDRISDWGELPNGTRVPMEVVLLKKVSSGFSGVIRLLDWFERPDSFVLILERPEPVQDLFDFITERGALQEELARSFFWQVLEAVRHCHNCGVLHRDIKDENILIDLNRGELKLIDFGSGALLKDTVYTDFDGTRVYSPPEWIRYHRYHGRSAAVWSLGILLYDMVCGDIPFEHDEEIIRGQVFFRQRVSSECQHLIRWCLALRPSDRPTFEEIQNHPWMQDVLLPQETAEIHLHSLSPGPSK

For the compound `CCOCc1cc(F)c(-c2nc(C(=O)Nc3cnccc3[C@@H]3C[C@H](C)C[C@H](N)C3)ccc2F)c(F)c1` [Example 81, N-(4-((1R,3S,5S)-3-amino-5-methylcyclohexyl)pyridin-3-yl)-6-(4-(ethoxymethyl)-2,6-difluorophenyl)-5-fluoropicolinamide], the values for the half-inhibitory concentration (IC50) in test [1], in test [2] and in test [3] were 420 pM, 10 pM and 210 pM, respectively. This compound also returned a half-maximal effective concentration (EC50) in test [4] of 14000 pM.
With `C[C@@H]1C[C@H](N)C[C@H](c2ccncc2NC(=O)c2ccc(F)c(-c3c(F)cc(C4CCOCC4)cc3F)n2)C1` [Example 82, N-(4-((1R,3S,5S)-3-amino-5-methylcyclohexyl)pyridin-3-yl)-6-(2,6-difluoro-4-(tetrahydro-2H-pyran-4-yl)phenyl)-5-fluoropicolinamide], the concentration for half-maximal inhibition (IC50) in test [1] was found to be 1050 pM; in test [2], 10 pM; in test [3] it was 520 pM. In test [4], this compound had an EC50 of 30000 pM.
As for `CCOCc1cc(F)c(-c2nc(C(=O)Nc3cnccc3[C@H]3C[C@@H](N)[C@H](O)[C@@H](C)C3)ccc2F)c(F)c1` [Example 83, N-(4-((1R,3R,4R,5S)-3-amino-4-hydroxy-5-methylcyclohexyl)pyridin-3-yl)-6-(4-(ethoxymethyl)-2,6-difluorophenyl)-5-fluoropicolinamide], the IC50 in test [1] turned out to be 2430 pM; in test [2] it was 40 pM; in test [3], 1330 pM. Further, the EC50 in test [4] stood at 166000 pM.
In the case of `C[C@@H]1C[C@H](N)C[C@H](c2ccncc2NC(=O)c2ccc(F)c(-c3c(F)cc(CC(C)(C)O)cc3F)n2)C1` [Example 84, N-(4-((1R,3S,5S)-3-amino-5-methylcyclohexyl)pyridin-3-yl)-6-(2,6-difluoro-4-(2-hydroxy-2-methylpropyl)phenyl)-5-fluoropicolinamide], the figures for the IC50 in test [1], in test [2] and in test [3] were 1480 pM, 20 pM and 520 pM, respectively. The compound further displayed a concentration for a half-maximal effect (EC50) in test [4] of 29000 pM.
Consider `C[C@H]1C[C@@H](c2ccncc2NC(=O)c2ccc(F)c(-c3c(F)cc(CC(C)(C)O)cc3F)n2)C[C@@H](N)[C@@H]1O` [Example 85, N-(4-((1R,3R,4R,5S)-3-amino-4-hydroxy-5-methylcyclohexyl)pyridin-3-yl)-6-(2,6-difluoro-4-(2-hydroxy-2-methylpropyl)phenyl)-5-fluoropicolinamide], for which the IC50 in test [1] amounted to 2200 pM; in test [2] it was 50 pM; in test [3], 1340 pM. Besides, the 50% effective concentration (EC50) in test [4] was 49000 pM.
The like results for `C[C@@H]1C[C@H](N)C[C@H](c2ccncc2NC(=O)c2nc(-c3c(F)cc(OC4CCOCC4)cc3F)c(F)cc2N)C1` [Example 86, 3-amino-N-(4-((1R,3S,5S)-3-amino-5-methylcyclohexyl)pyridin-3-yl)-6-(2,6-difluoro-4-(tetrahydro-2H-pyran-4-yloxy)phenyl)-5-fluoropicolinamide] were, in that order, 910 pM, 10 pM, 220 pM and 17000 pM.
As to `COC1(c2cc(F)c(-c3nc(C(=O)Nc4cnccc4N4C[C@@H](N)[C@H](O)[C@@H](C)C4)ccc3F)c(F)c2)COC1` [Example 88, N-(4-((3R,4R,5S)-3-amino-4-hydroxy-5-methylpiperidin-1-yl)pyridin-3-yl)-6-(2,6-difluoro-4-(3-methoxyoxetan-3-yl)phenyl)-5-fluoropicolinamide], the IC50 is 1180 pM in test [1], 20 pM in test [2] and 690 pM in test [3]. A half-maximal effect in test [4] (EC50) was put at 17000 pM.
`C[C@H]1CN(c2ccncc2NC(=O)c2ccc(F)c(-c3c(F)cc(C4(O)COC4)cc3F)n2)C[C@@H](N)[C@@H]1O` [Example 89, N-(4-((3R,4R,5S)-3-amino-4-hydroxy-5-methylpiperidin-1-yl)pyridin-3-yl)-6-(2,6-difluoro-4-(3-hydroxyoxetan-3-yl)phenyl)-5-fluoropicolinamide]: the 50% inhibitory concentration (IC50) in test [1] is 670 pM; in test [2], 10 pM; in test [3], 260 pM. The compound further returned a concentration giving a half-maximal response (EC50) in test [4] of 21000 pM.
On to `COC1(c2cc(F)c(-c3nc(C(=O)Nc4cnccc4[C@@H]4C[C@H](C)C[C@H](N)C4)c(N)cc3F)c(F)c2)COC1` [Example 90, 3-amino-N-(4-((1R,3S,5S)-3-amino-5-methylcyclohexyl)pyridin-3-yl)-6-(2,6-difluoro-4-(3-methoxyoxetan-3-yl)phenyl)-5-fluoropicolinamide], for which the IC50 came to 720 pM in test [1], 10 pM in test [2] and 710 pM in test [3]. In test [4], this compound returned an EC50 of 19000 pM.
For the compound `COC1(c2cc(F)c(-c3nc(C(=O)Nc4cnccc4[C@H]4C[C@@H](N)[C@H](O)[C@@H](C)C4)c(N)cc3F)c(F)c2)COC1` [Example 91, 3-amino-N-(4-((1R,3R,4R,5S)-3-amino-4-hydroxy-5-methylcyclohexyl)pyridin-3-yl)-6-(2,6-difluoro-4-(3-methoxyoxetan-3-yl)phenyl)-5-fluoropicolinamide], the half-maximal inhibitory concentration (IC50) in test [1] amounted to 1440 pM; in test [2], 20 pM; in test [3], 930 pM. The compound further came in with an EC50 in test [4] of 25000 pM.
As for `C[C@H]1CN(c2ccncc2NC(=O)c2ccc(F)c(-c3c(F)cc(OCC4CC4)cc3F)n2)C[C@@H](N)[C@@H]1O` [Example 92, N-(4-((3R,4R,5S)-3-amino-4-hydroxy-5-methylpiperidin-1-yl)pyridin-3-yl)-6-(4-(cyclopropylmethoxy)-2,6-difluorophenyl)-5-fluoropicolinamide], the IC50 in test [1] stood at 510 pM; in test [2], 10 pM; in test [3], 90 pM. Besides, the EC50 in test [4] worked out at 34000 pM.
Regarding `CC(C)Oc1cc(F)c(-c2nc(C(=O)Nc3cnccc3N3C[C@@H](N)[C@H](O)[C@@H](C)C3)ccc2F)c(F)c1` [Example 93, N-(4-((3R,4R,5S)-3-amino-4-hydroxy-5-methylpiperidin-1-yl)pyridin-3-yl)-6-(2,6-difluoro-4-isopropoxyphenyl)-5-fluoropicolinamide], the half-maximal inhibitory concentration (IC50) in test [1] stood at 780 pM; in test [2], 10 pM; in test [3] it was 100 pM. For the same compound, in test [4], the concentration for a half-maximal effect (EC50) was determined as 20000 pM.
Take `C[C@H]1C[C@@H](c2ccncc2NC(=O)c2ccc(F)c(-c3c(F)cc(C4CCOCC4)cc3F)n2)C[C@@H](N)[C@@H]1O` [Example 94, N-(4-((1R,3R,4R,5S)-3-amino-4-hydroxy-5-methylcyclohexyl)pyridin-3-yl)-6-(2,6-difluoro-4-(tetrahydro-2H-pyran-4-yl)phenyl)-5-fluoropicolinamide]: the 50% inhibitory concentration (IC50) in test [1] amounted to 1290 pM; in test [2], 10 pM; in test [3], 390 pM. This compound returned an EC50 in test [4] of 24000 pM.
Take `CC(C)Oc1cc(F)c(-c2nc(C(=O)Nc3cnccc3[C@@H]3C[C@H](C)C[C@H](N)C3)c(N)cc2F)c(F)c1` [Example 96, 3-amino-N-(4-((1R,3S,5S)-3-amino-5-methylcyclohexyl)pyridin-3-yl)-6-(2,6-difluoro-4-isopropoxyphenyl)-5-fluoropicolinamide]: the IC50 in test [1] turned out to be 1160 pM; in test [2] it was 10 pM; in test [3], 240 pM. Further, the EC50 in test [4] is 76000 pM.
In the case of `CC(C)Oc1cc(F)c(-c2nc(C(=O)Nc3cnccc3[C@H]3C[C@@H](N)[C@H](O)[C@@H](C)C3)c(N)cc2F)c(F)c1` [Example 97], the IC50 in test [1] was 1550 pM; in test [2] it was 20 pM; in test [3], 370 pM. In test [4], the concentration for a half-maximal effect (EC50) was determined as 69000 pM.
The like results for `C[C@H]1C[C@@H](c2ccncc2NC(=O)c2nc(-c3c(F)cc(C4COC4)cc3F)c(F)cc2N)C[C@@H](N)[C@@H]1O` [Example 98, 3-amino-N-(4-((1R,3R,4R,5S)-3-amino-4-hydroxy-5-methylcyclohexyl)pyridin-3-yl)-6-(2,6-difluoro-4-(oxetan-3-yl)phenyl)-5-fluoropicolinamide] were, in that order, 1380 pM, 30 pM, 530 pM and 40000 pM.
As for `C[C@H]1CN(c2ccncc2NC(=O)c2ccc(F)c(-c3c(F)cc(C4CCOCC4)cc3F)n2)C[C@@H](N)[C@@H]1O` [Example 99, N-(4-((3R,4R,5S)-3-amino-4-hydroxy-5-methylpiperidin-1-yl)pyridin-3-yl)-6-(2,6-difluoro-4-(tetrahydro-2H-pyran-4-yl)phenyl)-5-fluoropicolinamide], the IC50 in test [1] is 570 pM; in test [2] it was 10 pM; in test [3], 120 pM. This compound yielded an EC50 in test [4] of 10000 pM.
For `C[C@@H]1C[C@H](N)C[C@H](c2ccncc2NC(=O)c2nc(-c3c(F)cc(C(C)(C)O)cc3F)c(F)cc2N)C1` [Example 100, 3-amino-N-(4-((1R,3S,5S)-3-amino-5-methylcyclohexyl)pyridin-3-yl)-6-(2,6-difluoro-4-(2-hydroxypropan-2-yl)phenyl)-5-fluoropicolinamide], in that order: 530 pM, 10 pM, 130 pM and 12000 pM.
For `C[C@H]1C[C@@H](c2ccncc2NC(=O)c2nc(-c3c(F)cc(C(C)(C)O)cc3F)c(F)cc2N)C[C@@H](N)[C@@H]1O` [Example 101, 3-amino-N-(4-((1R,3R,4R,5S)-3-amino-4-hydroxy-5-methylcyclohexyl)pyridin-3-yl)-6-(2,6-difluoro-4-(2-hydroxypropan-2-yl)phenyl)-5-fluoropicolinamide], the results for the IC50 in test [1], in test [2] and in test [3] were 1300 pM, 20 pM and 360 pM, respectively. In test [4], this compound came in with a 50% effective concentration (EC50) of 30000 pM.
